Patent US8551996B2, “Compounds, compositions, methods of synthesis, and methods of treatment” (Emory University, priority 2009, dated 2013)

Molecular target: T1, CRF-1 receptor (Homo sapiens, UniProt P34998)
T1 construct: expressed in transfected cells; host or cells: HEK293T/17
T1 sequence (P34998 24-415): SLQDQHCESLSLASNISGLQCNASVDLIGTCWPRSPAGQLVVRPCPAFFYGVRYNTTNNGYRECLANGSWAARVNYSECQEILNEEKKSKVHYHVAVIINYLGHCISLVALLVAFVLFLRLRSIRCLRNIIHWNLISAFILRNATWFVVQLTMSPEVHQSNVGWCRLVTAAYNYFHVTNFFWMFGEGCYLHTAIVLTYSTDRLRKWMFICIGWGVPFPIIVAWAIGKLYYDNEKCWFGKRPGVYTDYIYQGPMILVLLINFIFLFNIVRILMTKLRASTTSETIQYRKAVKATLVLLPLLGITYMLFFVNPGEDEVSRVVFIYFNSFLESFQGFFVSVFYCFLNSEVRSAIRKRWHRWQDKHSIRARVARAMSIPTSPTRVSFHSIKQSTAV
Assay: CRF-1 receptor competitive binding vs. [125I]sauvagine
Details: for Ki: transfected HEK293T/17 cells expressing the CRF-1 receptor, radioligand [125I]sauvagine, read-out: CRF-1 Receptor Binding Affinities (vs. [125I] Sauvagine) Ki; for affinity for the CRF-1 receptor (in words): vs. [125I]sauvagine, only slightly reduced from that found for R121919
Text: Pyrido[2,3-b]pyrazin-2-ones of type VI (Table 1) were synthesized according to the procedure reported by Dzierba, et al., (J. Med. Chem. 2004, 47, 5783-5790) as shown in Scheme 21.

CCCCN(CC)c1cc(C)nc2c1NC(=O)CN2c1ccc(Br)cc1C [Compound 188, 8-(Butylethylamino)-4-(2-methyl-4-bromophenyl)-6-methyl-3,4-dihydro-1H-pyrido[2,3-b]pyrazin-2-one]
Ki: 5.7 ± 0.3 nM
affinity for the CRF-1 receptor (in words): high affinity

CCCCN(CC)c1cc(C)nc2c1NC(=O)CN2c1ccc(C)cc1Br [Compound 185, 4-(2-Bromo-4-methylphenyl)-8-(butylethylamino)-6-methyl-3,4-dihydra-1H-pyrido[2,3-b]pyrazin-2-one]
Ki: 6.2 ± 1.4 nM
affinity for the CRF-1 receptor (in words): high affinity

CCCCN(CC)c1cc(C)nc2c1NC(=O)CN2c1ccc(C)cc1C [Compound 191, 8-(Butylethylamino)-4-(2,4-dimethylphenyl)-6-methyl-3,4-dihydro-1H-pyrido[2,3-b]pyrazin-2-one]
Ki: 9.1 nM
affinity for the CRF-1 receptor (in words): high affinity
